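Compound exposure: 48 hours, 5 concentrations, 96-well plates. GI50 is the concentration that inhibits growth by half.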 Active and inactive are the calls of the source. No stated cut-off is given here; in the data, active = GI50 up to about 1.1 µM and inactive = higher.
Assays:
Assay in all cases: NCI tumour cell line growth inhibition, 48 h
A498 = test system: A498
HT-29 = test system: HT-29
IGROV-1 = test system: IGROV-1
LOX IMVI = test system: LOX IMVI
MDA-MB-231 = test system: MDA-MB-231
MDA-N = test system: MDA-N
Malme-3M = test system: Malme-3M
NCI-H226 = test system: NCI-H226
NCI-H23 = test system: NCI-H23
NCI-H522 = test system: NCI-H522
NCI/ADR-RES = test system: NCI/ADR-RES
OVCAR-5 = test system: OVCAR-5
SK-MEL-5 = test system: SK-MEL-5
SN12C = test system: SN12C
U-251 = test system: U-251
UACC-62 = test system: UACC-62
COLO 205 = test system: COLO 205
SF-539 = test system: SF-539
HCC 2998 = test system: HCC 2998

| Structure (SMILES) | GI50 (A498) | GI50 (HT-29) | GI50 (IGROV-1) | GI50 (LOX IMVI) | GI50 (MDA-MB-231) | GI50 (MDA-N) | GI50 (Malme-3M) | GI50 (NCI-H226) | GI50 (NCI-H23) | GI50 (NCI-H522) | GI50 (NCI/ADR-RES) | GI50 (OVCAR-5) | GI50 (SK-MEL-5) | GI50 (SN12C) | GI50 (U-251) | GI50 (UACC-62) | GI50 (COLO 205) | GI50 (SF-539) | GI50 (HCC 2998) |
| --- | --- | --- | --- | --- | --- | --- | --- | --- | --- | --- | --- | --- | --- | --- | --- | --- | --- | --- | --- |
| Cc1cnc2cc(Cl)ccc2c1SCC(=O)O | > 100 µM (inactive) | > 100 µM (inactive) | > 100 µM (inactive) | > 100 µM (inactive) | > 100 µM (inactive) | > 100 µM (inactive) | > 100 µM (inactive) | > 100 µM (inactive) | > 100 µM (inactive) | > 100 µM (inactive) | > 100 µM (inactive) | > 100 µM (inactive) | > 100 µM (inactive) | > 100 µM (inactive) | > 100 µM (inactive) | > 100 µM (inactive) | – | – | – |
| O=C(O)CSc1ncccc1[N+](=O)[O-] | > 100 µM (inactive) | > 100 µM (inactive) | > 100 µM (inactive) | > 100 µM (inactive) | > 100 µM (inactive) | > 100 µM (inactive) | > 100 µM (inactive) | > 100 µM (inactive) | > 100 µM (inactive) | > 100 µM (inactive) | > 100 µM (inactive) | > 100 µM (inactive) | > 100 µM (inactive) | > 100 µM (inactive) | > 100 µM (inactive) | > 100 µM (inactive) | > 100 µM (inactive) | > 100 µM (inactive) | – |
| CCc1nc2ccc(C(F)(F)F)cc2[nH]c1=O | 94.4 µM (inactive) | > 100 µM (inactive) | – | > 100 µM (inactive) | 50.6 µM (inactive) | > 100 µM (inactive) | > 100 µM (inactive) | > 100 µM (inactive) | > 100 µM (inactive) | – | > 100 µM (inactive) | > 100 µM (inactive) | > 100 µM (inactive) | > 100 µM (inactive) | > 100 µM (inactive) | > 100 µM (inactive) | > 100 µM (inactive) | > 100 µM (inactive) | > 100 µM (inactive) |
| CCCCCCSc1nc(COC(=O)NC)c(COC(=O)NC)n1C | > 100 µM (inactive) | > 100 µM (inactive) | > 100 µM (inactive) | > 100 µM (inactive) | > 100 µM (inactive) | > 100 µM (inactive) | – | > 100 µM (inactive) | > 100 µM (inactive) | > 100 µM (inactive) | > 100 µM (inactive) | > 100 µM (inactive) | > 100 µM (inactive) | > 100 µM (inactive) | > 100 µM (inactive) | > 100 µM (inactive) | > 100 µM (inactive) | > 100 µM (inactive) | – |
| CSc1ccc(/C=C2\N=C(c3ccccc3)N(c3nc4cc(Cl)c(F)cc4s3)C2=O)cc1 | 43.5 µM (inactive) | 49.4 µM (inactive) | 36.5 µM (inactive) | 20.3 µM (inactive) | 30.8 µM (inactive) | 30.3 µM (inactive) | – | – | – | – | 32.2 µM (inactive) | 71.3 µM (inactive) | 28.4 µM (inactive) | 36.7 µM (inactive) | 19.6 µM (inactive) | 43.6 µM (inactive) | 54.5 µM (inactive) | 26.3 µM (inactive) | 99.5 µM (inactive) |
| O=[N+]([O-])/C(C(Cl)=C(Cl)Cl)=C(\Nc1cccc2cccnc12)Sc1ccccc1 | 20 µM (inactive) | 23.4 µM (inactive) | – | – | 18.2 µM (inactive) | 43 µM (inactive) | 23.1 µM (inactive) | 28.6 µM (inactive) | 18.3 µM (inactive) | – | 22.1 µM (inactive) | 20.8 µM (inactive) | – | 22.2 µM (inactive) | 16.2 µM (inactive) | 11.1 µM (inactive) | 17.1 µM (inactive) | 20.8 µM (inactive) | 78.2 µM (inactive) |
| CN(C)CCCNC(=O)c1cc2/c(=C\c3ccc(N(C)C)cc3)c3ccccc3n2[n+]1C | 6.04 µM (inactive) | 27.5 µM (inactive) | 15.7 µM (inactive) | 42 µM (inactive) | 21.5 µM (inactive) | 24.4 µM (inactive) | 23.1 µM (inactive) | – | 21.3 µM (inactive) | 2.64 µM (inactive) | > 100 µM (inactive) | 56.6 µM (inactive) | 15.6 µM (inactive) | 1.58 µM (inactive) | 22.4 µM (inactive) | 17.3 µM (inactive) | 8.73 µM (inactive) | 21.2 µM (inactive) | – |
| Clc1nc(Nc2nc3ccccc3[nH]2)nc(Cl)c1Cc1ccccc1 | > 100 µM (inactive) | 54.1 µM (inactive) | 97.3 µM (inactive) | – | 30.7 µM (inactive) | 66.4 µM (inactive) | > 100 µM (inactive) | > 100 µM (inactive) | > 100 µM (inactive) | 37 µM (inactive) | > 100 µM (inactive) | > 100 µM (inactive) | > 100 µM (inactive) | 59.4 µM (inactive) | 29.6 µM (inactive) | 72.4 µM (inactive) | > 100 µM (inactive) | 31.2 µM (inactive) | – |
| CC1SCCc2nc3ccccc3n21 (centres undefined) | > 100 µM (inactive) | > 100 µM (inactive) | > 100 µM (inactive) | > 100 µM (inactive) | > 100 µM (inactive) | > 100 µM (inactive) | – | > 100 µM (inactive) | > 100 µM (inactive) | – | > 100 µM (inactive) | > 100 µM (inactive) | > 100 µM (inactive) | > 100 µM (inactive) | > 100 µM (inactive) | > 100 µM (inactive) | > 100 µM (inactive) | > 100 µM (inactive) | > 100 µM (inactive) |
| O=c1cc(-c2ccccc2)[nH]c2cc(F)c(F)cc12 | – | 0.998 µM (active) | 0.634 µM (active) | 0.494 µM (active) | 1.44 µM (inactive) | 0.0764 µM (active) | > 69.5 µM (inactive) | 1.55 µM (inactive) | 0.653 µM (active) | 0.385 µM (active) | 0.425 µM (active) | 1.89 µM (inactive) | 0.197 µM (active) | 1.97 µM (inactive) | 0.692 µM (active) | 0.322 µM (active) | 0.661 µM (active) | 0.342 µM (active) | 5.11 µM (inactive) |
| CSc1nc2ccccc2c(=O)n1/N=C1\C(=O)N(CN2CCOCC2)c2ccc(Cl)cc21 | 26.2 µM (inactive) | 23.7 µM (inactive) | 16.8 µM (inactive) | 15.2 µM (inactive) | 47.4 µM (inactive) | 31.8 µM (inactive) | > 100 µM (inactive) | 53.3 µM (inactive) | 21.8 µM (inactive) | 31.1 µM (inactive) | > 100 µM (inactive) | 26 µM (inactive) | 38.7 µM (inactive) | 48.2 µM (inactive) | 32.5 µM (inactive) | 6.68 µM (inactive) | 17.1 µM (inactive) | 26.7 µM (inactive) | – |
| Nc1ncnc2c1ncn2CC(OCP(=O)(O)O)Oc1ccccc1 (centres undefined) | > 100 µM (inactive) | – | – | > 100 µM (inactive) | > 100 µM (inactive) | > 100 µM (inactive) | – | > 100 µM (inactive) | – | – | > 100 µM (inactive) | > 100 µM (inactive) | > 100 µM (inactive) | > 100 µM (inactive) | > 100 µM (inactive) | > 100 µM (inactive) | > 100 µM (inactive) | > 100 µM (inactive) | > 100 µM (inactive) |
